The results in this text go back to US11059845B2, “Immune stimulating macrolides” (ISR IMMUNE SYSTEM REGULATION HOLDING AB (PUBL), priority 2017, dated 2021).

Experiment [1] addresses T1, human TLR2 (Homo sapiens, UniProt O60603).
T1 construct: host or cells: recombinant HEK-293-TLR cell lines (hTLR2, NFkB-SEAP reporter)
The experiment is described as follows: TLR2 reporter assay (HEK-293-TLR, SEAP). In kind it is cell-based. How it is done: Samples and controls were tested in duplicate on recombinant HEK-293-TLR cell lines using a cell reporter assay at Invivogen using their standard assay conditions. These cell lines functionally over-express human TLR2 protein as well as a reporter gene which is a secreted alkaline phosphatase (SEAP). The production of this reporter gene is driven by an NFkB inducible promoter. The TLR reporter cell lines activation results are given as optical density values (OD). 20 μl of each test article were used to stimulate the hTLR2 reporter cell lines in a 200 μl of final reaction volume. Samples were tested in duplicate, with at least two concentrations tested—20 uM and 10 uM.
Compounds were tested using a TLR2 reporter assay (see general methods) that measured for stimulation of the TLR2 receptor. Stimulatory effect was measured as an increase in optical density (OD) due to release of secreted alkaline phosphatase (SEAP) and is shown in table 4: […]
A general note: In a reporter assay the amount or activity of a reporter protein is the signal.

Experiment [2] deals with PBMCs. The experiment in a line: Supernatant IL-10 sandwich ELISA. Type of experiment: cell-based, human. The conditions noted are these: 100 U/mL IL-2, 48 h and 7 days. How it is done: Supernatant IL-10 was measured with a standard sandwich ELISA (all antibodies from BD Biosciences) after 48 hours and 7 days incubation with 2.5 μM of compound 1 and 100 U/mL IL-2 (Miltenyi Biotechnologies) in complete RPMI media, 37° C., 5% CO2
Supernatant IL-10 was measured with a standard sandwich ELISA (all antibodies from BD Biosciences) after 48 hours and 7 days incubation with 2.5 uM of compound 1 and 100 U/mL IL-2 (Miltenyi Biotechnologies) in complete RPMI media, 37° C., 5% CO2.
For orientation: In an ELISA, binding on a coated surface is turned into a signal by an enzyme label.

Experiment [3] concerns PBMCs from CMV infected donors. The experiment is described as follows: IFN-gamma secretion from PBMCs of CMV infected donors with CMV antigen (cytometric bead assay). Type of experiment: cell-based, human. The conditions noted are these: 3 days. The text has this: FIG. 9: Interferon-gamma secretion (as measured by cytometric bead assay) from PBMCs (from a CMV+ donor) grown with CMV peptides in the presence or absence of compound 1 or A for […].
Study 8: PBMCs from CMV infected donors cultured in the presence of CMV antigen where either untreated or exposed to compound 1 or compound 2 for 3 days.

The test system of experiment [4] is PBMCs. The experiment in a line: Cytokine/chemokine secretion from PBMCs (cytometric bead assay). Type of experiment: cell-based, human. The conditions noted are these: 2 days. The protocol: FIG. 11: Chemokine RANTES secretion (as measured by cytometric bead assay) from PBMC or macrophages stimulated with indicated compound for 48 h.
FIG. 12: IL12p70 secretion (as measured by cytometric bead assay) from PBMC or macrophages stimulated with indicated compound for 48 h.
FIG. 13: IL1b secretion (as measured by cytometric bead assay) from PBMC, macrophages or CD4 T cells stimulated with indicated compound for 48 h.
Study 10: PBMCs and macrophages where exposed to compounds 1 or 2 for 2 days (FIG. 11).
Study 11: PBMCs and macrophages where exposed to compounds 1 and 2 for 2 days.
Study 12: PBMCs, macrophages and CD4+ T cells where exposed to compounds 1 and 2 for 2 days.

In experiment [5] the test system is CMV specific CD8+ T cells. The experiment is described as follows: CMV cultures: phenotype of CMV specific CD8+ T cells. In kind it is cell-based, human. As to conditions: PBMCs from CMV infected donors, CMV antigen, 6 days. How it is done:
Human peripheral blood mononuclear cells (PBMCs) were purified from healthy CMV positive donors with Ficoll-Paque density centrifugation. The PBMC were labeled with 5 μM celltrace violet (Invitrogen) in PBS for 15 minutes and then washed with complete cell culture medium. The labeled PBMC was cultured in the presence of a peptide library spanning the CMV pp65 protein (1 μg peptide/ml, JPT) in AIM-V media (Invitrogen) supplemented with L-glutamine, Sodium pyruvate (Sigma), 10% fetal bovine serum, 100 μg/mL penicillin and 100 μg/mL streptomycin (Hyclone) for 6-8 days in 37° C., 5% CO2. Cell proliferation was assessed with flow cytomtery using a BD FACS Canto II flow cytometer.
Study 7: CMV virus specific T cell proliferation was also affected by compound 1. […] CD127 is crucial for T cell homeostasis, differentiation and function, and reduced expression correlates with disease severity in HIV and other chronic viral diseases (Crawley et al. 2012).

Molecules are shown by their SMILES. A value given as a limit tells only on which side of the number the result lay.

T1 sequence (O60603 21-784): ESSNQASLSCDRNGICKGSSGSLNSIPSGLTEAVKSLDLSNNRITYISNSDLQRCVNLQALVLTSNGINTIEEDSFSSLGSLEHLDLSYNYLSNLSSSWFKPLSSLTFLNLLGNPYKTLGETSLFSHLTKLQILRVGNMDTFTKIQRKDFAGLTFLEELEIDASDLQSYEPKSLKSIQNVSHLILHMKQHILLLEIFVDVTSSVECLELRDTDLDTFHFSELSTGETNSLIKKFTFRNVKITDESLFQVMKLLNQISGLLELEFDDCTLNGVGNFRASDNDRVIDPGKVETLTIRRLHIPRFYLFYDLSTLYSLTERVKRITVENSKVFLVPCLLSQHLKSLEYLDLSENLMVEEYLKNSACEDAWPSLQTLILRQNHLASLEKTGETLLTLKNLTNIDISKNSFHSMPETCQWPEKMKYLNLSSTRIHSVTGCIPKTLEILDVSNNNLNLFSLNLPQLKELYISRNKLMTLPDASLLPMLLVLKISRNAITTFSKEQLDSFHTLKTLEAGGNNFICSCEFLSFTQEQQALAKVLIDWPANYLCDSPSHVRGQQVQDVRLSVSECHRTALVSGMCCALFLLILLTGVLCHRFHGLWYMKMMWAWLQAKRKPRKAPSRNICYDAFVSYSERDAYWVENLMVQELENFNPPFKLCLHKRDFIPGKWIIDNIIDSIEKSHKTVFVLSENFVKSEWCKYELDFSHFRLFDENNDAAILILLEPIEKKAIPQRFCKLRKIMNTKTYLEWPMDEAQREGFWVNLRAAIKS

As to `CC[C@H]1OC(=O)[C@H](C)[C@@H](O[C@H]2C[C@@H](N(C)C)[C@H](O)[C@@H](C)O2)[C@H](C)[C@@H](O)[C@](C)(O)C[C@@H](C)CN(C)[C@H](C)[C@@H](O)[C@]1(C)O` [Compound 1], in experiment [1] (5 μM, SEAP reporter optical density), the “OD after addition of 5 μM test article” value is listed as 0.111. Besides, the “OD after addition of 10 μM test article” value in experiment [1] (10 μM, SEAP reporter optical density) is 0.202. Also, the “OD after addition of 20 μM test article” value in experiment [1] (20 μM, SEAP reporter optical density) was 0.458. In experiment [1] (lowest stimulating concentration tested), the “concentrations at which TLR2 was stimulated (down to)” value is at least 5 µM. The “production of IL-10” value in experiment [2] was “increased production”. Also, in experiment [3], the “IFN-gamma secretion, PBMCs with CMV antigen” value is on record as “induced secretion of high levels of IFN-gamma”. For the same compound, in experiment [4], the “IL-1beta secretion, PBMCs” value is listed as “slightly”; the “IL-12p70 secretion, PBMCs” value was “secreted IL-12p70”; the “expression of RANTES in PBMCs” value is given as “twofold upregulation”. In addition, the “expression of IL-7 receptor α (CD127) on activated CMV specific CD8+ T cells” value in experiment [5] was “increased expression”.
